Source: PubChem BioAssay AID330 (DTP/NCI, 2004)
“And” between values parts separate entries of the source, which are not always exact repeats. Equal entries are not always repeated. Inconclusive results and toxic doses are left out. How the source made its calls: active means survival T/C of 150% or more; inactive means T/C below 125% in these data.

Test system: P388 leukemia ip, CD2F1 mice, survival T/C
Assay: NCI In Vivo Anticancer Drug Screen. Data for tumor model P388 Leukemia (intraperitoneal) in CD2F1 (CDF1) mice
Conditions: endpoint: median survival time, higher = longer survival
Procedure, shortened: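 Mice carrying the transplanted tumor received test compound or vehicle. Survival was recorded in each group, and the value is the treated-group measurement divided by that of the vehicle-treated control group.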

[1] = dose: 50.0 mg/kg/injection, schedule: Q04DX003 (ip), vehicle: saline with Tween-80
[2] = dose: 100.0 mg/kg/injection, schedule: Q04DX003 (ip), vehicle: saline with Tween-80
[3] = dose: 200.0 mg/kg/injection, schedule: Q01DX009 (ip), vehicle: saline with Tween-80
[4] = dose: 400.0 mg/kg/injection, schedule: Q01DX009 (ip), vehicle: saline with Tween-80
[5] = dose: 400.0 mg/kg/injection, schedule: Q04DX003 (ip), vehicle: saline with Tween-80
[6] = dose: 50.0 mg/kg/injection, schedule: Q01DX005 (ip), vehicle: Klucel (hydroxypropylcellulose) (HPC)
[7] = dose: 100.0 mg/kg/injection, schedule: Q01DX009 (ip), vehicle: Klucel (hydroxypropylcellulose) (HPC)
[8] = dose: 200.0 mg/kg/injection, schedule: Q01DX001 (ip), vehicle: saline
[9] = dose: 400.0 mg/kg/injection, schedule: Q01DX001 (ip), vehicle: saline
[10] = dose: 50.0 mg/kg/injection, schedule: Q01DX009 (ip), vehicle: Klucel (hydroxypropylcellulose) (HPC)
[11] = dose: 200.0 mg/kg/injection, schedule: Q01DX009 (ip), vehicle: Klucel (hydroxypropylcellulose) (HPC)
[12] = dose: 50.0 mg/kg/injection, schedule: Q01DX009 (ip), vehicle: saline with Tween-80
[13] = dose: 100.0 mg/kg/injection, schedule: Q01DX009 (ip), vehicle: saline with Tween-80
[14] = dose: 200.0 mg/kg/injection, schedule: Q04DX003 (ip), vehicle: saline with Tween-80
[15] = dose: 12.5 mg/kg/injection, schedule: Q01DX005 (ip), vehicle: Klucel (hydroxypropylcellulose) (HPC)
[16] = dose: 25.0 mg/kg/injection, schedule: Q01DX005 (ip), vehicle: Klucel (hydroxypropylcellulose) (HPC)

Measured: T/C

Nc1nc2c(ncn2C2OC(CO)C(O)C2O)c(=O)[nH]1 (centres undefined)
inactive: dose: 25.0 mg/kg/injection, schedule: Q04DX003 (ip), vehicle: saline with Tween-80 103 % of control and 106 % of control | [1] 120 % of control | dose: 100.0 mg/kg/injection, schedule: Q01DX009 (ip), vehicle: suspension in saline 110 % of control | [2] 90 % of control | [3] 111 % of control | dose: 200.0 mg/kg/injection, schedule: Q01DX009 (ip), vehicle: suspension in saline 92 % of control | dose: 300.0 mg/kg/injection, schedule: Q01DX009 (ip), vehicle: saline with Tween-80 106 % of control | [4] 102 % of control | dose: 400.0 mg/kg/injection, schedule: Q01DX009 (ip), vehicle: suspension in saline 119 % of control and 97 % of control | [5] 100 % of control | dose: 600.0 mg/kg/injection, schedule: Q01DX009 (ip), vehicle: saline with Tween-80 90 % of control | dose: 800.0 mg/kg/injection, schedule: Q01DX009 (ip), vehicle: saline with Tween-80 114 % of control | dose: 800.0 mg/kg/injection, schedule: Q01DX009 (ip), vehicle: suspension in saline 113 % of control and 94 % of control | dose: 1200.0 mg/kg/injection, schedule: Q01DX009 (ip), vehicle: saline with Tween-80 95 % of control | dose: 1600.0 mg/kg/injection, schedule: Q01DX009 (ip), vehicle: saline with Tween-80 99 % of control | dose: 1600.0 mg/kg/injection, schedule: Q01DX009 (ip), vehicle: suspension in saline 112 % of control and 95 % of control | dose: 2400.0 mg/kg/injection, schedule: Q01DX009 (ip), vehicle: saline with Tween-80 100 % of control | dose: 2400.0 mg/kg/injection, schedule: Q01DX009 (ip), vehicle: suspension in saline 117 % of control

COc1cc(C2(O)c3cc4c(cc3CCN2C)OCO4)cc(OC)c1OC (centres undefined)
inactive: [6] 97 % of control | dose: 100.0 mg/kg/injection, schedule: Q01DX005 (ip), vehicle: Klucel (hydroxypropylcellulose) (HPC) 96 % of control | dose: 200.0 mg/kg/injection, schedule: Q01DX005 (ip), vehicle: Klucel (hydroxypropylcellulose) (HPC) 90 % of control

NC(=S)N/N=C/c1nc2ccccn2c1[N+](=O)[O-]
inactive: [7] 86 % of control

CC1=C2C(O)C(=O)OC3CC4C(C)(C)C(=O)CCC4(C)C(CC1)C23C (centres undefined)
inactive: dose: 0.1 mg/kg/injection, schedule: Q01DX009 (ip), vehicle: Klucel (hydroxypropylcellulose) (HPC) 97 % of control | dose: 0.21 mg/kg/injection, schedule: Q01DX009 (ip), vehicle: Klucel (hydroxypropylcellulose) (HPC) 98 % of control | dose: 0.43 mg/kg/injection, schedule: Q01DX009 (ip), vehicle: Klucel (hydroxypropylcellulose) (HPC) 100 % of control | dose: 0.87 mg/kg/injection, schedule: Q01DX009 (ip), vehicle: Klucel (hydroxypropylcellulose) (HPC) 102 % of control | dose: 1.75 mg/kg/injection, schedule: Q01DX009 (ip), vehicle: Klucel (hydroxypropylcellulose) (HPC) 98 % of control

c1ccc2c(c1)ccc1c[n+]3ccccc3cc12
inactive: dose: 0.25 mg/kg/injection, schedule: Q01DX009 (ip), vehicle: saline 100 % of control | dose: 0.5 mg/kg/injection, schedule: Q01DX009 (ip), vehicle: saline 104 % of control | dose: 1.0 mg/kg/injection, schedule: Q01DX009 (ip), vehicle: saline 100 % of control | dose: 1.25 mg/kg/injection, schedule: Q04DX003 (ip), vehicle: other 100 % of control | dose: 2.5 mg/kg/injection, schedule: Q04DX003 (ip), vehicle: other 107 % of control

CCCCCc1cc(/C=C2/N=C(c3ccc[nH]3)C=C2OC)[nH]c1C
inactive: dose: 1.5 mg/kg/injection, schedule: Q01DX009 (ip), vehicle: saline 114 % of control | dose: 3.0 mg/kg/injection, schedule: Q01DX009 (ip), vehicle: saline 120 % of control and 123 % of control | dose: 6.0 mg/kg/injection, schedule: Q01DX009 (ip), vehicle: saline 107 % of control

COc1ccc2c(c1N)CC[C@@H]1C2CC[C@]2(C)C(O)CCC12 (some centres undefined)
inactive: dose: 50.0 mg/kg/injection, schedule: Q01DX005 (ip), vehicle: saline with Tween-80 104 % of control | dose: 100.0 mg/kg/injection, schedule: Q01DX005 (ip), vehicle: saline with Tween-80 96 % of control | dose: 200.0 mg/kg/injection, schedule: Q01DX005 (ip), vehicle: saline with Tween-80 91 % of control

CC(=O)C(C)S(=O)(=O)O (centres undefined)
inactive: dose: 100.0 mg/kg/injection, schedule: Q01DX001 (ip), vehicle: saline 106 % of control | [8] 106 % of control | [9] 106 % of control

O=C(NNC1=NCCN1Cc1ccccc1)c1cccc(Cl)c1
inactive: [10] 100 % of control | [7] 100 % of control | [11] 100 % of control

N#CN1C2C=CC(c3ccccc3)NC21 (centres undefined)
inactive: [12] 100 % of control | [13] 96 % of control

O=C(CNC(=O)OCc1ccccc1)NCC1OC(n2cnc3c(=O)[nH]cnc32)C(O)C1O (centres undefined)
inactive: [1] 102 % of control | [2] 94 % of control | [14] 98 % of control

CCN1CCC[C@]2(C)[C@H]3CC[C@@]4(C)[C@@H](CC[C@]4(C)O)[C@@H]3CC[C@@H]12
inactive: [15] 101 % of control | [16] 97 % of control | [6] 93 % of control and 95 % of control

CC(=O)Nn1c(N)nc2cc(C)ccc21
inactive: [8] 98 % of control | [9] 93 % of control

CC(=O)NCC(=O)c1ccc(Cl)cc1
inactive: [2] 120 % of control | [14] 120 % of control | [5] 105 % of control

C/C(=N\NC(N)=O)c1cccc(/C(C)=N/NC(N)=O)n1
inactive: dose: 25.0 mg/kg/injection, schedule: Q01DX009 (ip), vehicle: saline with Tween-80 116 % of control | [12] 109 % of control and 118 % of control

CCCCB1OB(CCCC)OB(CCCC)O1
inactive: [12] 92 % of control | [13] 105 % of control | [3] 105 % of control

CC(=O)SCC[n+]1cc2ccccc2c2ccccc21
inactive: dose: 3.12 mg/kg/injection, schedule: Q01DX005 (ip), vehicle: Klucel (hydroxypropylcellulose) (HPC) 95 % of control | dose: 6.25 mg/kg/injection, schedule: Q01DX005 (ip), vehicle: Klucel (hydroxypropylcellulose) (HPC) 99 % of control | [15] 105 % of control and 108 % of control | [16] 100 % of control | [6] 115 % of control and 118 % of control

CC1COCCOCCOCC(C)OC(=O)COCC(=O)O1 (centres undefined)
inactive: [10] 99 % of control | [7] 101 % of control | [11] 105 % of control

c1ccc(-c2cc3ccc4cccnc4c3o2)cc1
inactive: dose: 100.0 mg/kg/injection, schedule: Q04DX002 (ip), vehicle: saline with Tween-80 91 % of control | dose: 200.0 mg/kg/injection, schedule: Q04DX002 (ip), vehicle: saline with Tween-80 87 % of control | dose: 400.0 mg/kg/injection, schedule: Q04DX002 (ip), vehicle: saline with Tween-80 103 % of control

CCOC(=O)C1=C(C)NC(C)=C(C(=O)OCC)C1c1ccccc1Cl
inactive: dose: 12.5 mg/kg/injection, schedule: Q01DX009 (ip), vehicle: saline 100 % of control | dose: 25.0 mg/kg/injection, schedule: Q01DX009 (ip), vehicle: saline 110 % of control | dose: 50.0 mg/kg/injection, schedule: Q01DX009 (ip), vehicle: saline 120 % of control

Cc1cc(=O)c2c(ccc3ccccc32)[nH]1
inactive: [13] 106 % of control | [3] 109 % of control | [4] 104 % of control
